Test results reported in patent US12285392B2, “Method for modulating metabolism” (Brightseed, Inc., priority 2018, dated 2025).

What was measured:
[1] = tested on: insulin mRNA; assay: Insulin mRNA levels by quantitative PCR; assay type: cell-based; details: FIG. 2
Protocol: (§1) Expression of Insulin and HNF4α. RNA was purified using a RNEASY® chromatographic separation and isolation kits (Qiagen), and converted to cDNA using the gScript™ cDNA SuperMix (Quanta Biosciences). Q-PCR was conducted with cDNA corresponding to 2 μg of RNA using an Opticon Real-Time System (MJ Research) and QPCR SuperMix (BioPioneer). See All mRNA values were normalized to 18S rRNA values and are expressed as fold changes over vehicle-treated control.

[2] = tested on: T6PNE cells; assay: Lipid clearance in T6PNE cells (steatosis assay); assay type: cell-based
Protocol: T6PNE cells were pretreated for 1 day with 0.06 mM, 0.12 mM or 0.25 mM palmitate at which time 15 μM N-trans-caffeoyltyramine or control (DMSO) was added. Cells were harvested on day 3, 6 and 8 and subjected to staining with Nile Red and Oil Red O. Results are expressed as fold change in Nile Red staining: +palmitate/10% FBS medium (no palmitate)
(§2) Lipid Clearance in HepG2 and T6PNE Cells (Steatosis Assay). The steatosis assay was carried out as described (Kiselyuk, et al. (2012) Chem. Biol. 19(7):806-818) with the exception of the drug concentration, which was 20 μM for N-trans-caffeoyltyramine with 0.25 mM palmitate in HepG2 cell lines, and 10 μM of either N-trans-caffeoyltyramine, N-trans-caffeoyltyramine, or pcoumaroyltyramine, with 0.25 mM palmitate in T6PNE cell lines. Steatosis was assessed using the Oil Red 0 Method for Fats kits (Poly Scientific; Warrington, PA), per manufacturer's guidelines. Briefly, frozen tissue slides or fixed cells were incubated in neat propylene glycol for 2 minutes and Oil Red 0 solution for 15 hours for slides or 1 hour for fixed cells, differentiated in 85% propylene glycol solution for 1 minute, washed twice with distilled water and stained in Hematoxylin of 10 seconds. Slides were mounted with glycerin jelly mounting medium.

[3] = Hepatic microsome stability assay, rat; assay type: in vitro ADME; details: rat microsomes
Protocol: (§3) Hepatic Microsome Assay. Hepatic microsomes stability assays were performed in accordance with known methods (Peddibhotla, et al. (2013) ACS Med. Chem. Lett. 4:846-851). Briefly, 3 μL of 25 μM compound solution in acetonitrile were incubated with 123 μL of mouse, human or rat liver microsomes (Xenotech, Kansas City, Kans.). […] The microsomal concentrations used were 1.0 mg/mL. Compounds were incubated in microsomes for 0, 5, 15, 30 and 60 minutes. The reactions were stopped by the addition of ice cold ACN and the reaction mixtures were centrifuged at 10,000 g for 10 minutes before the supernatant was removed for analysis. A 10 μL portion of the resulting extract was injected on a Thermo HPLC system equipped with PAL CTC plate sampler (96-well plate), Dionex Ultimate 3000 binary pump (flow rate at 0.600 mL/min), Dionex Ultimate 3000 thermostatted column compartment (temperature at 40° C.), Thermo Endura Mass Spectrometer (ESI source), using a Thermo Scientific Accucore C18 (2.6 μM, 2.1×50 mm) column. A gradient was run starting at 95% H2O (0.1% formic acid) and 5% ACN (0.1% formic acid) during the first 0.5 min, then under gradient condition of 5-100% ACN (0.1% formic acid) from minute 0.5 to 3.5, finishing at 95% H2O (0.1% formic acid) and 5% ACN (0.1% formic acid) over 0.5 min, with another 1 min at 95:5 to re-equilibrate.

[4] = Hepatic microsome stability assay, human; assay type: in vitro ADME
Protocol: as §3

[5] = tested on: estrogenic activity; assay: Counter-screen for estrogenic activity (E47MER luciferase reporter in HeLa cells); assay type: cell-based, human; details: FIG. 5
Protocol: Counter-Screen for Estrogenic Activity. Estrogenic activity was monitored by co-transfection of a reporter plasmid containing a multimerized E-box 5′ of a minimal promoter fused to the Firefly luciferase gene (4RTK-luc) with wild-type E47 or E47MER (Kiselyuk, et al. (2010) J. Biomol. Screen 15(6):663-70). HeLa cells were transfected using polyethylenimine, 0.2 μg 4RTK-Luc plasmid and either 0.3 μg of human E47, E47MER or pMSCVhph vector in 50 μl of serum-free Dulbecco's modification of Eagle medium per well. Transfections included Renilla luciferase (pRL-TK) plasmid as a control for transfection efficacy. Transfection conditions were as described in the PPRE-Luc reporter assay of Kiselyuk, et al. ((2010) J. Biomol. Screen 15(6):663-70). Sixteen hours after transfection, culture media were changed and maintained for 48 hours with tamoxifen and/or compound or vehicle (DMSO). Cells were then lysed and assayed for luciferase activity using the Promega DUAL-LUCIFERASE® reporter assay kit (Promega Corp., Madison, WI), and luminescence was measured using the Veritas™ Microplate Luminometer (Turner Biosystems, Sunnyvale, CA). Data were normalized to Renilla luciferase (pRL-TK) and expressed as fold-change over vehicle alone.

[6] = tested on: HNF4α mRNA; assay: HNF4α mRNA levels by quantitative PCR; assay type: cell-based; details: FIG. 3
Protocol: as §1

[7] = tested on: HepG2 cells; assay: Lipid clearance in HepG2 cells (steatosis assay, Oil Red O); assay type: cell-based; details: HepG2 liver cells, 20 μM
Protocol: as §2

Structure (SMILES): O=C(/C=C/c1ccc(O)c(O)c1)NCCc1ccc(O)cc1 [N-trans-caffeoyltyramine]
- Insulin gene expression [1]: upregulated
- Fat accumulation ([2]; 10 μM, 0.25 mM palmitate): inhibition of fat accumulation
- Lipid accumulation when palmitate was added prior to compound ([2]; FIG. 6, 15 μM): reduced lipid accumulation
- % Remaining ([3]; 1 μM): 0.6%
- % Remaining ([3]; 10 μM): 33.6%
- Apparent major biotransformation pathway ([4]; human microsomes): oxidation of the left-hand aryl ring
- % Remaining ([4]; human microsomes, 1 μM): 55.3%
- % Remaining ([4]; human microsomes, 10 μM): 85.4%
- Stability in hepatic microsomes ([4]; human, rat and mouse hepatic microsomes): stable
- Estrogenic activity [5]: did not exhibit estrogenic activity
- HNF4α gene expression [6]: upregulated
- Clearing of fats (Oil Red O staining) [7]: capable of clearing harmful fats from the liver
- Accumulation of fats ([7]; 0.25 mM palmitate): inhibited accumulation of fats
